Laboratory results reported in US6465494B1, “Methods for treatment of cystic fibrosis” (Cell Pathways, Inc., priority 2001, dated 2002).
Structures can show the parent of a compound that is named as a salt.

How the values were obtained:
[1] = test system: TNF-α secreted by TPA-induced U937 cells; assay: TNF-α immunoassay on culture media of TPA-treated U937 cells; format: cell-based
Method: One function of macrophages is to modulate the activity of other inflammatory cells through various cytokine molecules.
TNF-αlevels in the cell culture media were determined by using the TNF-α Immunoassay from R&D Systems (Cat. # DTA50) according to the manufacturer's protocol.

PDE5 = PDE5 (Homo sapiens, UniProt O76074); assay: competitive (with cGMP) binding to PDE5
PDE4 = assay: PDE inhibition, similar protocols: PDE4; format: biochemical
PDE1 = assay: PDE inhibition, similar protocols: PDE1; format: biochemical

CC1=C(CC(=O)NCc2ccccc2)c2cc(F)ccc2/C1=C\c1ccncc1 [Example 38, (Z)-5-fluoro-2-methyl-(4-pyridylidene)-3-(N-benzyl)indenylacetamide hydrochloride]
level of TNF-α secreted into cell culture media [1]: significantly reduced | competitive (with cGMP) binding to PDE 5 (PDE5): does competitively (with cGMP) bind to PDE 5 | IC50 (PDE4): 6 µM | IC50 (PDE1): 3 µM
